Reference: patent publication US20180354909A1, “SUBSTITUTED BENZIMIDAZOLIUM, PYRIDO-IMIDAZOLIUM, OR PYRAZINO-IMIDAZOLIUM COMPOUNDS AS CHEMOTHERAPEUTICS” (The Board of Regents of the University of Texas System, priority 2015, published 2018)

Assays:
[1] = In vitro plasma half-life; assay type: in vitro ADME; conditions: murine plasma; for half-life at 2 μM: mouse, plasma, read-out: Plasma T1/2 (converted)
Method: (§1) 12M11 (2 μM final concentration) was incubated with murine plasma and saline for 0-1440 minutes. Reactions were quenched with 200 μl (1:2) of methanol containing 0.1% formic acid and 200 ng/ml IS (IS final conc.=100 ng/mL). Samples were vortexed for 15 seconds, incubated at RT for 10 minutes and spun for 5 minutes at 13.2K rpm. Supernatant ([…]) was then transferred to an eppendorf tube and spun in a table top, chilled centrifuge for 5 minutes at 13.2K rpm. Supernatant (800 μL) was transferred to an HPLC vial (w/out insert). Analyzed by Qtrap 3200 mass spectrometer. These methods were used data obtained in the FIGS. 22C and 22F.

[2] = system: Mut6; assay: Cytotox testing (CellTiter-Glo ATP assay) in Mut6 cells; assay type: cell-based, mouse; conditions: CellTiter-Glo; for EC50: Mus musculus, 96 h, Mut6 cells, 4 days, read-out: Activity in Mut6 [EC50]
Method: (§2) Mut6 tumor cells were cultured in DMEM/F12 media supplemented by EGF (10 ng/mL), basic FGF (10 ng/mL), heparin (4 ug/mL), glucose (total 21 mM), NaHCO3 (113 μg/mL), Hepes (119 μg/mL), glutamine (2 mM), sodium pyruvate (1 mM), N2 supplement (ThermoFisher Gibco 17502-048, 100×, at 100-fold dilution), B27 supplement (ThermoFisher Gibco 12587-010, 50×, at 100-fold dilution), and penicillin/streptomycin (ThermoFisher, final 1%). Cells were maintained in Ultra-low attachment plate (Corning) as sphere-forming cells. For ATP assays and protein/RNA isolation, cells were plated into 96-well plates or 6-well plated that were coated with poly-lysine (Sigma P6407, 10 μg/mL in PBS, 4 hr at 37° C.) and laminin (ThermoFisher 23017015, ˜5 mg/L in PBS, overnight at 37° C.). MEFs and Astrocytes were cultured in DMEM supplemented with 10% FBS and 1% Penicillin/Streptomycin.
2,000 cells were plated into each well of 96-well plates. About 3 hours later, cells were treated by 12M11, at 800-fold dilution (4 mM stock was diluted into 5 μM final concentration). […] CellTiter-Glo assay (Promega) was performed according to manufacturer's instructions, by adding 20 μL of reagent into each well. Luminescence signal was detected by the PolarStar plate reader (BMG Labtech). Experiments were performed in quadruplicate, and results are presented with mean average −/+ standard deviation. EC505 were calculated by GraphPad Prism6 software.
The compounds described herein were tested using a cell-based cytotoxicity assay against neuronal stem cells in Mut6, which is a mouse glioblastoma model cell line.

[3] = Buffer (saline) stability; assay type: physicochemical
Method: as §1

[4] = Murine S9 half-life; assay type: in vitro ADME; conditions: mouse, S9 fraction; murine S9, Phase I cofactors; read-out: S9 T1/2
Method: 22D. […] (2 mM in DMSO) was incubated with Murine S9 (Lot KWB) fraction and Phase I (NADPH Regenerating System) cofactors for 0-240 minutes. Reactions were quenched with 1 mL (1:1) of methanol containing 0.2% formic acid and 100 ng/ml IS (IS final conc.=50 ng/mL). Samples were vortexed for 15 seconds, incubated at RT for 10 minutes and spun for 5 minutes at 2400 rpm. Supernatant (1 mL) was then transferred to an eppendorf tube and spun in a table top, chilled centrifuge for 5 minutes at 13.2K rpm. Supernatant (800 uL) was transferred to an HPLC vial (w/out insert). Analyzed by Qtrap 3200 mass spectrometer. These methods were used data obtained in the FIGS. 22A and 22D.

[5] = system: astrocytes; assay: Cytotox testing (CellTiter-Glo) in astrocytes; assay type: cell-based
Method: as §2
2,000 cells were plated into each well of 96-well plates. About 3 hours later, cells were treated by 12M11, at 800-fold dilution (4 mM stock was diluted into 5 μM final concentration). Cells were further incubated for 4 days. CellTiter-Glo assay (Promega) was performed according to manufacturer's instructions, by adding 20 μL of reagent into each well. Luminescence signal was detected by the PolarStar plate reader (BMG Labtech). Experiments were performed in quadruplicate, and results are presented with mean average −/+ standard deviation. EC505 were calculated by GraphPad Prism6 software.

[6] = system: Mut6; assay: Change in ATP levels in Mut6 cells; assay type: cell-based, mouse; conditions: Mut6, 2-6 hr
Method: (§3) Mut6 tumor cells or MEFs were plated into 96-well plates. One day later, Oligomyin (2 μM), Rotenone (200 nM), or 12M11 (1 μM) were added into each well and then ATP levels were measured by Cell-Titer Glo (Promega) after 2 hr, 4 hr, or 6 hr incubation. Each data is mean of six replicates with ± standard deviation.

[7] = system: ATF4; assay: ATF4 western blot in Mut6 cells; assay type: cell-based, mouse
Method: (§4) Mut6 tumor cells and MEFs were treated by DMSO or 1 μM 12M11 for the indicated times. Cell lysate was prepared by RIPA buffer with phosphatase inhibitor (Thermo) and protease inhibitor (Roche). Antibodies are purchased from Santa Cruz (ATF4), Cell Signaling (pS6, S6, AMPK, and pAMPK), and Millipore (Gapdh).

[8] = system: MEF; assay: Change in ATP levels in MEF cells; assay type: cell-based, mouse; conditions: 2-6 hr
Method: as §3

[9] = system: Phospho-S6; assay: p-S6 western blot in Mut6 cells; assay type: cell-based, mouse
Method: as §4

[10] = system: mitochondrial membrane potential; assay: TMRE mitochondrial membrane potential staining in Mut6 cells; assay type: cell-based, mouse; conditions: within 30 min
Method: TMRE mitochondrial membrane potential assay kit was purchased from Abcam (113852) and the assay was performed according to the manufacturer's protocol. Briefly, cells were pre-incubated with 1 μM 12M11 (10 min or 18 hrs) or 100 nM FCCP (10 min) and incubated for additional 20 min with 200 nM TMRE before pictures were taken.

half-life at 2 μM [1] | Buffer Stability [3] | Structure (SMILES) | EC50 [2] | also measured
10.6 min | 97% | CC(C)[C@@H]1CC[C@@H](C)CC1OC(=O)Cn1c(-c2ccccc2)[n+](C)c2ccccc21.[I-] (stereo partly shown) | 100 to 1000 nM | 
24 min | 95% | Cc1ccc(-c2n(CC(=O)OC3C[C@H](C)CC[C@H]3C(C)C)c3ccccc3[n+]2C)cc1.[I-] (stereo partly shown) | 100 to 1000 nM | 
90 min | 100% | CC(C)[C@@H]1CC[C@@H](C)CC1OC(=O)Cn1c(-c2ccc([N+](=O)[O-])cc2)[n+](C)c2ccccc21.[I-] (stereo partly shown) | 1000 to 5000 nM | half-life [4]: 139 min
 |  | C=C(C)[C@H]1Cc2c(ccc3c2O[C@@H]2COc4cc(OC)c(OC)cc4[C@@H]2C3=O)O1 [rotenone] |  | activity against astrocytes [5]: sensitive; activity against Mut6 cells [2]: sensitive; ATP levels (% change from basal) [6]: decrease significantly; ATF4 protein level [7]: induction; ATP levels (% change from basal) [8]: increase; Phospho-S6 protein level [9]: suppression
240 min | 100% | CC(C)[C@@H]1CC[C@@H](C)CC1OC(=O)Cn1c(-c2cccc(C(F)(F)F)c2)[n+](C)c2ccccc21.[I-] (stereo partly shown) | 100 to 1000 nM | half-life [4]: > 240 min
11 min | 100% | CC(C)[C@@H]1CC[C@@H](C)CC1OC(=O)Cn1c(-c2cccc(F)c2)[n+](C)c2ccccc21.[I-] (stereo partly shown) | 100 to 1000 nM | 
 | 100% | CCc1n(CC(=O)O[C@@H]2C[C@H](C)CC[C@H]2C(C)C)c2ccccc2[n+]1C.[Cl-] | 100 to 1000 nM | Plasma T1/2 [1]: < 4 min
 |  | CC[C@H]1/C=C/C=C/C[C@@H](C)[C@H](O)[C@@](C)(O)C(=O)[C@@H](C)[C@H](O)[C@@H](C)C(=O)[C@@H](C)[C@H](O)[C@@H](C)/C=C/C(=O)O[C@@H]2[C@H](C)[C@H](CC1)O[C@]1(CC[C@H](C)[C@H](C[C@@H](C)O)O1)[C@H]2C [oligomycin] |  | activity against astrocytes [5]: sensitive; activity against Mut6 cells [2]: sensitive; ATP levels (% change from basal) [6]: decrease significantly; ATF4 protein level [7]: induction; ATP levels (% change from basal) [8]: increase; Phospho-S6 protein level [9]: suppression
26 min | 96% | CC(C)[C@@H]1CC[C@@H](C)CC1OC(=O)Cn1c(-c2ccc(N=[N+]=[N-])cc2)[n+](C)c2ccccc21.[I-] (stereo partly shown) | 100 to 1000 nM | half-life [4]: 26 min
10 min | 100% | CSc1ccc(-c2n(CC(=O)OC3C[C@H](C)CC[C@H]3C(C)C)c3ccccc3[n+]2C)cc1.[I-] (stereo partly shown) | 100 to 1000 nM | 
 |  | C[C@@H]1C[C@@H]([C@H](O)CC2CC(=O)NC(=O)C2)C(=O)[C@@H](C)C1 [cycloheximide, reference compound] |  | activity against astrocytes [5]: sensitive; activity against Mut6 cells [2]: sensitive
9.8 min | 114% | CC(C)[C@@H]1CC[C@@H](C)CC1OC(=O)Cn1c(-c2ccc(O)cc2)[n+](C)c2ccccc21.[I-] (stereo partly shown) | 1000 to 5000 nM | half-life [4]: 133 min
29 min | 94% | CC(C)[C@@H]1CC[C@@H](C)CC1OC(=O)Cn1c(-c2cccc(Br)c2)[n+](C)c2ccccc21.[I-] (stereo partly shown) | 100 to 1000 nM | 
330 min | 133% | CC(C)[C@@H]1CC[C@@H](C)CC1OC(=O)Cn1c(-c2cccc([N+](=O)[O-])c2)[n+](C)c2ccccc21.[I-] (stereo partly shown) | 1000 to 5000 nM | half-life [4]: > 240 min
47 min | 100% | CC(C)[C@@H]1CC[C@@H](C)CC1OC(=O)Cn1c(-c2ccccc2[N+](=O)[O-])[n+](C)c2ccccc21.[I-] (stereo partly shown) | 100 to 1000 nM | half-life [4]: > 240 min
 |  | CC(C)[C@@H]1CC[C@@H](C)CC1OC(=O)[C@@H](C1CC1)n1c(-c2ccc(N(C)C)c(C(F)(F)F)c2)[n+](C)c2ccccc21 (stereo partly shown) | 100 to 1000 nM | 
 |  | CCN(CC)c1ccc(-c2n([C@@H](C(=O)OC3C[C@H](C)CC[C@H]3C(C)C)C3CC3)c3ccccc3[n+]2C)cc1 (stereo partly shown) | < 100 nM | 

half-life at 2 μM [1] | Buffer Stability [3] | Structure (SMILES) | EC50 [2] | also measured
39 min | 91% | CC(C)[C@@H]1CC[C@@H](C)CC1OC(=O)Cn1c(-c2cc(Cl)cc(Cl)c2)[n+](C)c2ccccc21.[I-] (stereo partly shown) | 100 to 1000 nM | 
73 min | 100% | Cc1ccccc1-c1n(CC(=O)OC2C[C@H](C)CC[C@H]2C(C)C)c2ccccc2[n+]1C.[I-] (stereo partly shown) | 100 to 1000 nM | 
 |  | CCc1n(CC(=O)OC2C[C@H](C)CC[C@H]2C(C)C)c2ccc(OC)cc2[n+]1C (stereo partly shown) | < 100 nM | 
 |  | CCCCN(CCCC)c1ccc(-c2n([C@@H](C(=O)OC3C[C@H](C)CC[C@H]3C(C)C)C3CC3)c3ccccc3[n+]2C)cc1 (stereo partly shown) | < 100 nM | 
15 min | 100% | COc1ccc(-c2n(CC(=O)OC3C[C@H](C)CC[C@H]3C(C)C)c3ccccc3[n+]2C)cc1.[I-] (stereo partly shown) | 100 to 1000 nM | 
 |  | CCc1n(CC(=O)OC2C[C@H](C)CC[C@H]2C(C)C)c2ccc(F)cc2[n+]1C (stereo partly shown) | 100 to 1000 nM | 
 |  | CCc1n(CC(=O)OC2C[C@H](C)CC[C@H]2C(C)C)c2cc(Br)ccc2[n+]1C (stereo partly shown) | 100 to 1000 nM | 
 |  | COC(=O)Cn1c(-c2ccccn2)nc2ccccc21 | > 5000 nM | 
 |  | COC(=O)Cn1c(-c2ccc(F)cc2)nc2ccccc21 | > 5000 nM | 
 |  | CCc1n(CC(=O)OCCOC)c2ccccc2[n+]1C | > 5000 nM | 
8 min | 9% | CC(C)[C@@H]1CC[C@@H](C)CC1OC(=O)Cn1c(-c2ccc(N(C)C)cc2)[n+](C)c2ccccc21.[I-] (stereo partly shown) | < 100 nM | 
 |  | N#CC(C#N)=NNc1ccc(OC(F)(F)F)cc1 [FCCP, reference compound] |  | oxidative phosphorylation / mitochondrial membrane potential by TMRE staining [10]: impairs oxidative phosphorylation
 |  | C#CCOc1ccc(-c2n(CC(=O)OC3C[C@H](C)CC[C@H]3C(C)C)c3ccccc3[n+]2C)cc1N=[N+]=[N-] (stereo partly shown) | 100 to 1000 nM | 
 |  | C#CC[n+]1c(-c2ccc(N(C)C)cc2)n(CC(=O)OC2C[C@H](C)CC[C@H]2C(C)C)c2ccccc21 (stereo partly shown) | < 100 nM | 
 |  | CC(C)[C@@H]1CC[C@@H](C)CC1OC(=O)Cn1c(-c2ccc(F)cc2)[n+](C)c2ccccc21 (stereo partly shown) | 100 to 1000 nM | 
 |  | CCc1n(CC(=O)OC2C[C@H](C)CC[C@H]2C(C)C)c2ccncc2[n+]1C (stereo partly shown) | 100 to 1000 nM | 
